The conditions of data set [1]: reproductive.
The test system of another data set is Anas platyrhynchos. The settings on record: acute, oral, unspecified.
The subject of another data set is Aphidius rhopalosiphi. Conditions: not reported; mortality.
The subject of another data set is Apis mellifera. The settings on record: acute; duration: 48 hours; dermal; mortality.
The next data set has as its system Canidae. The settings on record: oral, Dog Other.
Another data set has as its system Colinus virginianus. Conditions: oral; for LD50: acute, mortality.
The next data set relates to Coturnix japonica. The settings on record: reproduction developmental; duration: 6 weeks.
The test system of a further data set is Cyprinus carpio. Conditions: acute; duration: 96 hours; mortality.
For a further data set, the system named is Daphnia magna. Conditions: chronic/long-term; duration: 21 days; reproduction.
Another data set deals with Homo sapiens. Conditions: clinical; oral; capsule; clinical signs.
A further data set has as its system Landoltia sp. The settings on record: chronic/long-term; duration: 14 days.
The next data set has as its system Pimephales promelas. Conditions: chronic/long-term; duration: 34 days; reproduction.
For another data set, the system named is Rattus norvegicus. The settings on record: acute; oral; mortality.
The next data set has as its system Zea sp. The settings on record: chronic/long-term.

The values below come from EPA's ToxValDB 9.5 (doi:10.2903/j.efsa.2009.174r).

Where only a bound is given, the exact number is not on record here.

On to `O=P(O)(O)CCCl` [Ethephon], for which the no observed adverse effect level (NOAEL) (as a rule, the highest tested level that showed no adverse finding) in data set [1] turned out to be 22.8 mg/kg-day; with Canidae (chronic, duration: 1 years, body weight) it was 27 mg/kg-day; with Canidae (short-term, duration: 28 days, clinical chemistry), 6 mg/kg-day; with Homo sapiens, 0.5 mg/kg-day. For the same molecule, the NOEL with Anas platyrhynchos is 450 mg/kg; with Colinus virginianus (short-term, duration: 8 days, diet), more than 530 mg/kg-day; in the data set on Coturnix japonica, 159 mg/kg-day. Besides, the LD50 in the data set on Anas platyrhynchos (mortality) is 1420 mg/kg; in the data set with Apis mellifera it was more than 100 µg/piece; in the data set with Colinus virginianus (duration: 8 days, diet) it was more than 450 mg/kg; in the data set on Colinus virginianus, 764 mg/kg; with Rattus norvegicus, 1560 mg/kg. Besides, the LEL with Aphidius rhopalosiphi turned out to be 480 g/ha. The LC50 is more than 100 mg/L in the data set on Cyprinus carpio and more than 60000 g/ha in the data set with Tagia sp. (acute, duration: 14 days, mortality). For the same molecule, the NOEC with Daphnia magna is 67 mg/L; with Landoltia sp., less than 0.1 mg/L; in the data set on Pimephales promelas it was 43 mg/L; in the data set with Tagia sp. (chronic/long-term, duration: 8 weeks, reproduction), not below 200 mg/kg; in the data set on Zea sp., 2580 g/ha.
